For series [1], the target named is T1, Amine oxidase [flavin-containing] A (Homo sapiens, UniProt P21397).
T1 sequence (P21397 whole entry): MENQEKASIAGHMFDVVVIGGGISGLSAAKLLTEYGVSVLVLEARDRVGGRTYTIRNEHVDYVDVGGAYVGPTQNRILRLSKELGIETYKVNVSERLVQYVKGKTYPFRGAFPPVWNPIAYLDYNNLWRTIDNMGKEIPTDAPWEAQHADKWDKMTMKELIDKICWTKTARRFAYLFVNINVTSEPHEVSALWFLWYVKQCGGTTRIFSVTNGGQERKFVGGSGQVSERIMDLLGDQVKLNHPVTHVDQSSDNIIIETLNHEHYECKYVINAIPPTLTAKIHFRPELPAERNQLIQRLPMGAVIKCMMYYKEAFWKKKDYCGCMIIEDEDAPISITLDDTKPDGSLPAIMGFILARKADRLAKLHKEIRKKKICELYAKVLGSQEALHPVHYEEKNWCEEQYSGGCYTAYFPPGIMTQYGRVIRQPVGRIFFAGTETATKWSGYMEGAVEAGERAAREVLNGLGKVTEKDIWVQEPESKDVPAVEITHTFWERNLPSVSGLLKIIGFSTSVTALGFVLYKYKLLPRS
In words: Inhibition of recombinant human MAOA using p-tyramine as substrate after 15 mins by Amplex Red dye-based fluorometric method.

For series [2], the species on record is Homo sapiens. Briefly: Selectivity index, ratio of Ki for recombinant human MAOA to Ki for recombinant human MAOB.
For series [3], the target named is T1, Amine oxidase [flavin-containing] A. In words: Inhibition of human MAOA.
The species named for series [4] is Homo sapiens. Briefly: Selectivity index, ratio of IC50 for inhibition of human MAOA to IC50 for IC50 for inhibition of human MAOB.
Series [5] addresses T2, Amine oxidase [flavin-containing] B (Homo sapiens, UniProt P27338).
T2 sequence (P27338 whole entry): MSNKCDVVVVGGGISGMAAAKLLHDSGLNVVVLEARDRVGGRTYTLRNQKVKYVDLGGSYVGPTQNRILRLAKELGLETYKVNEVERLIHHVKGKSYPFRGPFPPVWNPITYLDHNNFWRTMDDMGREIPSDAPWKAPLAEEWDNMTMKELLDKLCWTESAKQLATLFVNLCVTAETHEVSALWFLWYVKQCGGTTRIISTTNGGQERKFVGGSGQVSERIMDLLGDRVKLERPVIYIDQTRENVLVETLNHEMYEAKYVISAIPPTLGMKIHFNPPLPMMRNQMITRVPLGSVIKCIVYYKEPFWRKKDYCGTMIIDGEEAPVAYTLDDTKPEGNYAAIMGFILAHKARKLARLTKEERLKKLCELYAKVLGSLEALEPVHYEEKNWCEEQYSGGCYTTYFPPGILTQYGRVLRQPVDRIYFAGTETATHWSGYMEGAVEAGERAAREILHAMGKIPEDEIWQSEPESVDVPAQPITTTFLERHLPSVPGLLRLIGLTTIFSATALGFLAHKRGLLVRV
Briefly: Inhibition of human MAOB.

In series [6] the target is T2, Amine oxidase [flavin-containing] B. In words: Inhibition of recombinant human MAOB using p-tyramine as substrate after 15 mins by Amplex Red dye-based fluorometric method.
Series [7] has as its target T3, MAO-A (amine oxidase [flavin-containing] A) (Homo sapiens, UniProt P21397).
T3 sequence (P21397 whole entry): T1 sequence (P21397 whole entry)
Briefly: Inhibition of human MAOA at 1 uM relative to control.

The target of series [8] is T4, MAO-B (amine oxidase [flavin-containing] B) (Homo sapiens, UniProt P27338).
T4 sequence (P27338 whole entry): T2 sequence (P27338 whole entry)
Briefly: Inhibition of human MAOB at 1 uM relative to control.

Series [9] deals with T1, Amine oxidase [flavin-containing] A. In words: Inhibition of recombinant human MAOA using kynuramine as substrate after 30 mins by fluorescence assay.
For series [10], the species on record is Homo sapiens. In words: Selectivity index, ratio of IC50 for human MAOA to IC50 for human MAOB.

A value given as a limit tells only on which side of the number the result lay.

For orientation: Ki means the equilibrium dissociation constant of an inhibitor or competing ligand from its target. For the compound `CCc1ccc(/C=C/C(=O)c2ccc(Cl)s2)cc1`, the Ki in [1] is 5.22 µM. Also, the Ratio Ki in [2] worked out at 16.8.

For the compound `COc1cc(C2=NN(C(=O)Oc3ccccc3)C(c3ccc(O)c(OC)c3)C2)ccc1O` (configuration not stated), the Ki in [3] was found to be 0.14 µM. Moreover, the Ratio IC50 in series [4] turned out to be 9e-07.

`CCn1c(=O)c2c(nc(/C=C/c3ccc(OC)c(OC)c3)n2C)n(CC)c1=O` [ISTRADEFYLLINE] yielded a Ki in series [5] of 0.027 µM. As for `O=C(/C=C/c1ccc([N+](=O)[O-])cc1)c1ccc(Cl)s1`, the values for the Ki in series [1] and in series [6] were 0.49 µM and 2.55 µM, respectively. Besides, in [2], the Ratio Ki amounted to 0.19.

A word on the inhibition: it is the relative decrease from the control value, in per cent. Low values mean a weak effect, high ones a strong effect. For `Cn1c(=O)c2[nH]c(-c3cccc(NC(=O)/C=C/c4cccc(F)c4)c3)nc2n(C)c1=O`, the inhibition at 1 µM in series [7] is 0%; in [8], 30.9%. The compound further came in with a Ki in [5] of 3.42 µM. As usually defined, the IC50 is the concentration that inhibits the measured activity by half. For `Cc1ncc(/C=C/c2ccc(CN3CCOCC3)c(O)c2)c(CO)c1O`, the IC50 in series [9] amounted to 16 µM. For `O=C(SCCc1ccco1)c1cc2ccccc2oc1=O`, the IC50 in [3] is 39.7 µM; in [5], 0.2 µM. Further, in series [10], the Ratio IC50 stood at 189.

With `Cn1c(=O)c2c(nc(-c3cccc(Cl)c3)n2C)n(C)c1=O`, in series [5], the Ki worked out at 36 µM. The compound `O=C1c2ccccc2C(=O)c2c(O)c(O)cc(O)c21` [PURPURIN] came in with an IC50 in series [5] of over 40 µM.

The values above are taken from ChEMBL document CHEMBL4480364, “Discovery of monoamine oxidase inhibitors by medicinal chemistry approaches” (Medchemcomm, 2019).
